Consider twelve molecules from patent publication US8093218B2, “Peptide derived from vascular endothelial growth factor receptor-1 binding integrin α5β1 having proangiogenic activity” (Provincia Italiana della Congregazione dei Figli …, priority 2006, dated 2012).

Test [1] has as its system HUVEC migration induced from VEGFR-1/Fc. The test can be described thus: EC migration in Boyden chambers induced by VEGFR-1/Fc. Format: cell-based, human. To be noted: HUVEC pre-incubated with peptide. Here is the method:
In order to investigate the ability to peptide 12 to influence the migration of the EC induced from VEGFR-1/Fc, a process mediated from the integrin α5β1, the HUVEC were pre-incubated with peptide 12 and peptide 1 and placed in Boyden chambers in order to analyze the migration induced from VEGFR-1/Fc or fibronectin (FN). Data represent the average of 14 microscopic fields and are referred to as percentage of inhibition compared to the migration observed in the absence of peptides.

For test [2], the system named is HUVEC. Nature of the test: formation of tubules of EC in Type I collagen gel. The test is classed as cell-based, human. Here is the method:
It was tested the ability of the peptide 12 to induce the formation of tubules of EC. HUVEC cells were plated on 24 wells plates previously covered with a mixture of gel Type I collagen, in the absence or presence of 500 μg/ml peptide 12 or peptide 1. A second layer of gel Type I collagen was placed on the adherent cells. As shown, in the absence or presence of peptides, were added, in the culture medium, different concentrations of VEGF (40 or 100 nM), or 20 μg/ml of protein VEGFR-1/Fc.

Test [3] concerns HUVEC. The test can be described thus: cellular adhesion of HUVEC to alanine-substituted peptide 12 mutants. To be noted: mutant peptides covalently linked to plates. The test is classed as cell-based, human. Here is the method:
These peptides were tested for their ability to directly support the cellular adhesion. The ten peptides were covalently linked to plates, and were also tested, as negative controls, a peptide “scrambled” in which the amino acid sequence of the peptide 12 was modified (see Table 1.) (sP12) and BSA. The HUVEC were plated and allow to adhere. The results were expressed as percentage of the cellular adhesion observed on plates covered with the peptide 12.

The target of test [4] is T1, integrin α5β1 (Homo sapiens, UniProt P05556+P08648). Nature of the test: solid-phase binding of integrin α5β1 to alanine-substituted peptide 12 mutants. The following applies: purified integrin α5β1 on plates covered with mutant peptides. Here is the method: Was also assessed the direct binding to integrin α5β1 with mutant peptides by a binding test on solid phase. The integrin α5β1 purified was added to plates covered with the various peptides and the amount bound was measured using an antibody anti-integrin α5β1 with a calorimetric method. The data were expressed as percentage of protein linked observed on plates covered with the original peptide 12.

The target in test [5] is T1, integrin α5β1. The test can be described thus: integrin α5β1 aggregation around peptide-coated magnetic beads (immunostaining). Format: cell-based. Also on record: endogenous in cells; host or cells: HUVEC. To be noted: magnetic beads coated with peptide, immunostaining for integrin α5β1. Here is the method: The integrins not linked are widely distributed on cellular membrane, but after the ligand binding and the activation merged in distinct structures called focal contacts and ECM contact.
(§1) It was examined whether the peptide 12 was able to induce aggregation of integrin α5β1 after the binding. EC adherent cells were incubated with magnetic beads coated with peptide 12, or peptide RGD or peptide RGE respectively as positive and negative controls, and immunostained with an antibody against integrin α5β1.

For test [6], the system named is HUVEC adhesion to peptide 12. The test can be described thus: adhesion of HUVEC to peptide 12 in presence of chelating agents or anti-integrin antibodies. The following applies: HUVEC on plates covered with peptide 12. The test is classed as cell-based, human. Here is the method: The peptide 12 or the BSA, as non-specific adhesion control, were linked on plates and the HUVEC added in the presence of chelating agents (EDTA or EGTA).
The HUVEC were pre-incubated with an antibody against the integrin α5β1 or versus the integrinic subunit α6 and left to adhere on plates covered with peptide 12 or BSA.

The next test concerns angiogenesis. The following applies: previously published; cited from earlier work.
Test [7] deals with HUVEC adhesion to VEGFR-1/Fc. The test can be described thus: inhibition by peptides of EC adhesion to VEGFR-1/Fc. The test is classed as cell-based, human. The following applies: peptide added to HUVEC suspension before plating. Here is the method:
(§2) In order to test the ability of the twelve chosen peptides to inhibit the adhesion of the EC to VEGFR-1 mediated from the integrin α5β1, every peptide was added to one suspension of HUVEC before plated on dishes covered with VEGFR-1/Fc or fibronectin (FN). The data were indicated as percentage of adhesion, calculated to the number of cells adhered on the substrate itself in absence of peptides.

The target in another test is T2, VEGF (Homo sapiens, UniProt P15692).
T2 sequence (P15692 207-320 limits assumed): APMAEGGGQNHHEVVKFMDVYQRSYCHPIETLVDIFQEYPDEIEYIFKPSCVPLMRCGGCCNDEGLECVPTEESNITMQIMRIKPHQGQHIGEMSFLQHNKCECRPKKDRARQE
To be noted: previously published; cited from earlier work.

For test [8], the system named is HUVEC adhesion to fibronectin (FN). Nature of the test: inhibition by peptides of EC adhesion to fibronectin. Format: cell-based, human. The following applies: peptide added to HUVEC suspension before plating. Here is the method: as §2
The target of test [9] is T3, integrin α5β1 on endothelial cells derived from human umbilical vein (HUVEC) (human, UniProt P08648 42-1049; P05556 21-798).
T3 construct: whole, on cells; Endogenous integrin on HUVEC in the adhesion, migration and bead tests; also called integrin α5β1 of the EC
The test can be described thus: magnetic beads coated with peptide on adherent HUVEC, immunostaining for integrin α5β1. Here is the method: as §1

Test [10] addresses T1, integrin α5β1. The test can be described thus: solid-phase binding of purified integrin α5β1 to plates covered with dII or VEGFR-1/Fc. The following applies: anti-integrin α5β1 antibody, colorimetric, absorbance at 405 nm. Here is the method: The direct bind of the integrin α5β1 to the domain had been determined also with binding test on solid phase. The purified integrin α5β1 was added to plates covered with dII or with VEGFR-1/Fc like positive control and the integrin bound was measured using an antibody anti-integrin α5β1 and a colorimetric test.

Test [11] has as its system HUVEC. The test can be described thus: adhesion of HUVEC on plates covered with recombinant protein. To be noted: plates covered with the protein; absorbance at 540 nm. Format: cell-based, human. Here is the method: The endothelial cells derived from human umbilical vein (HUVEC) were used to examine ability of the domain II to support the adhesion of EC in plates covered with the recombinant protein.
The HUVEC were incubated on plates covered with VEGFR-1 FC, with the domain II (dII) recombinant, with fibronectin (FN) or bovine serum albumin (BSA). The protein VEGFR-1/Fc, and the fibronectin were used as positive controls and BSA as negative control.
The cells assayed were coloured and the absorbance was measured.

Entries after “also recorded” stand apart in the source; their conditions may differ.

T1 sequence (P08648 42-894 limits assumed): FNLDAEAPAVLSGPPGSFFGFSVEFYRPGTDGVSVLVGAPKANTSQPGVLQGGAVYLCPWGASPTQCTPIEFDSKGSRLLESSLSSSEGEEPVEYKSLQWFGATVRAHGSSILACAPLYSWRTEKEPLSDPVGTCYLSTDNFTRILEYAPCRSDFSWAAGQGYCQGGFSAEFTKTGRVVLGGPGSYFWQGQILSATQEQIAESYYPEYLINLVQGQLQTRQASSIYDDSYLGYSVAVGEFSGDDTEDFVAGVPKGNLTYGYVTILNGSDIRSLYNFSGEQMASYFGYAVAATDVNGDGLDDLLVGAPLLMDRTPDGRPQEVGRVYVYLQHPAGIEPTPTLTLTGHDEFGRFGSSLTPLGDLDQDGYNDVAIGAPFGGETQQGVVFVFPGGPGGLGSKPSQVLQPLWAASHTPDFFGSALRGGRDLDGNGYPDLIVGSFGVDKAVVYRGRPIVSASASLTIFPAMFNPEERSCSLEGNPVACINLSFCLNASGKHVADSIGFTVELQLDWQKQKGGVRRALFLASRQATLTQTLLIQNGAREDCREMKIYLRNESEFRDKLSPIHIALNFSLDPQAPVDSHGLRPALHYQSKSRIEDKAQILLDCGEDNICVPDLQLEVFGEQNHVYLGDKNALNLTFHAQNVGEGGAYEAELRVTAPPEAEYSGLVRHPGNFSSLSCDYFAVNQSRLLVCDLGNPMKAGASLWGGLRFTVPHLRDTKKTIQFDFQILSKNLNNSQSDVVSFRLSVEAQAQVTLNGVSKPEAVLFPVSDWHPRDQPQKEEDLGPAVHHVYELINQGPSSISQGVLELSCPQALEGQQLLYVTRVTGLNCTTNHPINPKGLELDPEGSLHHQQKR
T1 sequence (P08648 895-1049 partner limits assumed): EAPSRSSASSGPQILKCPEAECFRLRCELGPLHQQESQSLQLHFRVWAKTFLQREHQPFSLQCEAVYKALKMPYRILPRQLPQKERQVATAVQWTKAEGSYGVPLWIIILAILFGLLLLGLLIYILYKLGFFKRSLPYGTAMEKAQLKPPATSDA
T1 sequence (P05556 21-798): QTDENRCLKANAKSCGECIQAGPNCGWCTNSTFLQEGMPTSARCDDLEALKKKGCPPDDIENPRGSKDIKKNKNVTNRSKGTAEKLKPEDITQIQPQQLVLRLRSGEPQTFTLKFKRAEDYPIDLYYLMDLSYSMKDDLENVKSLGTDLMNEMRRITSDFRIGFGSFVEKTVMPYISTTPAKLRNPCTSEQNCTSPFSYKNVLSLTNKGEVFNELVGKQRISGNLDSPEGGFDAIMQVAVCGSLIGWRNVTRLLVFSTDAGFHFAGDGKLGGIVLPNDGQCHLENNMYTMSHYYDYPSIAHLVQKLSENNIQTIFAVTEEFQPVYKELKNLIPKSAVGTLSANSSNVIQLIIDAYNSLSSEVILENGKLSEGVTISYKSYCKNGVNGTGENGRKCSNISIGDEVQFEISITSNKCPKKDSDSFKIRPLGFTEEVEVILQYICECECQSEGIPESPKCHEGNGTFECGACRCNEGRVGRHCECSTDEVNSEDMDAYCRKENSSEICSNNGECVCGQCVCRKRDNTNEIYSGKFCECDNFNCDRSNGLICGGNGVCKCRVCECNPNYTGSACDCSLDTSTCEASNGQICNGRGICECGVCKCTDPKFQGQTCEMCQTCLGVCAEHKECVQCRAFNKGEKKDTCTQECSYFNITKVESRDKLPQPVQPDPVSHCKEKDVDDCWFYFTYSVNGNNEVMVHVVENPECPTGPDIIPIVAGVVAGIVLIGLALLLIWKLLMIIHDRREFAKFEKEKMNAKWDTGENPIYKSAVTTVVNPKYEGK
T3 sequence (P08648 42-1049, chain 1 of 2): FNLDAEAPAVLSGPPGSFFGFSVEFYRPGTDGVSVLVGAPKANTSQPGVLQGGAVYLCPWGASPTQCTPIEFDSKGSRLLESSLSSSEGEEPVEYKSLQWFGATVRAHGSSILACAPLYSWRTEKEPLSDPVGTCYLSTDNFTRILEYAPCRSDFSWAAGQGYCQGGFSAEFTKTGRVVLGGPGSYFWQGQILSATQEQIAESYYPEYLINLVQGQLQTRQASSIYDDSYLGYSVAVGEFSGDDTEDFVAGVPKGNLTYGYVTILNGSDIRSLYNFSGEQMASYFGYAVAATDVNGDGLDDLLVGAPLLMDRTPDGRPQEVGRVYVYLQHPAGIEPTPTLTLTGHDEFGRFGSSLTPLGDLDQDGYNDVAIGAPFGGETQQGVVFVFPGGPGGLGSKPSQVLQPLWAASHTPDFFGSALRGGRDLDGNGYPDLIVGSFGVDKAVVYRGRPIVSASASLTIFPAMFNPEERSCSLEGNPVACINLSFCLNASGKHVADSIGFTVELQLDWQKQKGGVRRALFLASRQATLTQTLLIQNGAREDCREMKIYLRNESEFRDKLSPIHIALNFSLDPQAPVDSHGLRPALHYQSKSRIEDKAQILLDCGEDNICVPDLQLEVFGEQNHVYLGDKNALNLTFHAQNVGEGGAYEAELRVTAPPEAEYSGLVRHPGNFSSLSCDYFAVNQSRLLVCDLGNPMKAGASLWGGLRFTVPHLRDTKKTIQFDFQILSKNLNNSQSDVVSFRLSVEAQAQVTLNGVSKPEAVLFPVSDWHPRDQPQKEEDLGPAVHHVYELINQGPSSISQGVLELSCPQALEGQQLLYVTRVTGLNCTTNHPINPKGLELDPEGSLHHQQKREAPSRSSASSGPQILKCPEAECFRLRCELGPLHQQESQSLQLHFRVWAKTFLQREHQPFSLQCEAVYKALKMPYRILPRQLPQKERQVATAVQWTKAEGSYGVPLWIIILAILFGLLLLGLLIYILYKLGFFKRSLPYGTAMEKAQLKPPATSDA
T3 sequence (P05556 21-798, chain 2 of 2): as the sequence (P05556 21-798) above

Regarding “GRPFVEMYSE (listed as Homo sapiens) [peptide 1, used as negative control]”, the “inhibition of EC migration induced by VEGFR-1/Fc” value in test [1] is “completely ineffective”. Besides, the “effect on VEGF-induced tubule formation” value with HUVEC [2] (500 μg/ml peptide with VEGF 40 nM) was “neither increased the effect of VEGF”. The “induction of formation of tubules of EC” value with HUVEC [2] (500 μg/ml peptide, collagen I matrix) is reported as “did not induce the formation of tubules”.
On to “His 223 peptide mutant in Ala: peptide 12 with His 223 mutated to alanine (NYLTARQ)”, for which the “cellular adhesion to mutant peptide relative to peptide 12” value in the test on HUVEC [3] was “comparable”; with HUVEC [3] (listed as His 223), “significantly reduce”. For the same molecule, the “role of replaced residue in integrin α5β1 binding to mutant peptide relative to peptide 12” value with integrin α5β1 [4] is “important in supporting the protein/protein interaction”.
Turning to RGE [peptide RGE, reference compound], the “integrin α5β1 aggregation / bead attachment on EC” value on integrin α5β1 [5] was “No beads covered with the peptide RGE was attached with HUVEC”.
Consider `O=C(O)CN(CCN(CC(=O)O)CC(=O)O)CC(=O)O` [EDTA, reference compound], for which the “effect of agent on adhesion of EC to peptide 12” value in [6] is “completely abolished adhesion of EC”.
“NITVTLKKFPL (listed as Homo sapiens) [peptide 5]”: the angiogenesis inhibitor activity entry in the test on angiogenesis is on record as “act as an angiogenesis inhibitor”. The “inhibition of adhesion of EC to VEGFR-1/Fc” value (from here on “inhibition … to VEGFR-1/Fc”) in [7] is listed as “effectively blocked; also recorded: inhibit cellular adhesion to sVEGFR-1”. Further, the “binding to VEGF / inhibition of VEGF binding to its receptors” value in the test with VEGF is on record as “without binding to VEGF or inhibiting VEGF binding to its receptors”.
As to `O=C(O)CN(CCOCCOCCN(CC(=O)O)CC(=O)O)CC(=O)O` [EGTA, reference compound], the “effect of agent on adhesion of EC to peptide 12” value in [6] is on record as “completely abolished adhesion of EC”.
With “TEGRELVIPARVT (listed as Homo sapiens) [peptide 4]”, in [7], the “inhibition … to VEGFR-1/Fc” value is on record as “effectively blocked; also recorded: inhibit cellular adhesion to sVEGFR-1”. Moreover, the “inhibition of adhesion of EC to fibronectin” value in test [8] is “partially inhibit”.
As to “KFPLDTLIPDG (listed as Homo sapiens) [peptide 7]”, the “inhibition … to VEGFR-1/Fc” value in [7] was “effectively blocked; also recorded: inhibit cellular adhesion to sVEGFR-1”. In addition, the “inhibition of adhesion of EC to fibronectin” value in [8] was “partially inhibit”.
Turning to “Y220A: peptide 12 with Tyr 220 replaced with alanine (NALTHRQ)”, the “cellular adhesion to mutant peptide relative to peptide 12” value is listed as “significantly reduce” in the test with HUVEC [3] and “completely abolished cellular adhesion” in the test on HUVEC [3] (listed as Tyr 220 with ALA). In addition, the “role of replaced residue in integrin α5β1 binding to mutant peptide relative to peptide 12” value with integrin α5β1 [4] is recorded as “residue more critical to the integrin binding”.

B1: peptide 12 (NYLTHRQ, VEGFR-1 residues 219-225) (peptide)
peptide: NYLTHRQ
notes: Covalently linked to plates or coated on magnetic beads, or added in solution to HUVEC; also called P12; original peptide 12
With B1, the binding result in test [9] is given as “binds”.

B2: VEGFR-1/Fc: sVEGFR-1 fusion protein with the Fc domain of human immunoglobulins (protein)
chain: SKLKDPELSLKGTQHIMQAGQTLHLQCRGEAAHKWSLPEMVSKESERLSITKSACGRNGKQFCSTLTLNTAQANHTGFYSCKYLAVPTSKKKETESAIYIFISDTGRPFVEMYSEIPEIIHMTEGRELVIPCRVTSPNITVTLKKFPLDTLIPDGKRIIWDSRKGFIISNATYKEIGLLTCEATVNGHLYKTNYLTHRQTNTIIDVQISTPRPVKLLRGHTLVLNCTATTPLNTRVQMTWSYPDEKNKRASVRRRIDQSNSHANIFYSVLTIDKMQNKDKGLYTCRVRSGPSFKSVNTSVHIYDKAFITVKHRKQQVLETVAGKRSYRLSMKVKAFPSPEVVWLKDGLPATEKSARYLTRGYSLIIKDVTEEDAGNYTILLSIKQSNVFKNLTATLIVNVKPQIYEKAVSSFPDPALYPLGSRQILTCTAYGIPQPTIKWFWHPCNHNHSEARCDFCSNNEESFILDADSNMGNRIESITQRMAIIEGKNKMASTLVVADSRISGIYICIASNKVGTVGRNISFYITDVPNGFHVNLEKMPTEGEDLKLSCTVNKFLYRDVTWILLRTVNNRTMHYSISKQKMAITKEHSITLNLTIMNVSLQDSGTYACRARNVYTGEEILQKKEITIRGEHCNKKAVFSRISKFKSTRNDCTTQSNVKH
modifications: left off: a dimerising Fc or GST
notes: sVEGFR-1 fusion protein with the Fc domain of human immunoglobulins
B2: in the test with HUVEC [2] (20 μg/ml VEGFR-1/Fc in culture medium), the “effect of VEGFR-1/Fc on constitution of tubules” value was “strong inhibition of the constitution of tubules”. In addition, the “amount of integrin α5β1 bound to coated protein” value with integrin α5β1 [10] is “a similar amount of integrin interacted”.

B3: dII recombinant: recombinant protein corresponding to VEGFR-1 domain II (residues 129-229), produced in SF9 cells (protein)
chain: SDTGRPFVEMYSEIPEIIHMTEGRELVIPCRVTSPNITVTLKKFPLDTLIPDGKRIIWDSRKGFIISNATYKEIGLLTCEATVNGHLYKTNYLTHRQTNTI
modifications: left off: small tags and cut ends
notes: recombinant protein corresponding to VEGFR-1 domain II (residues 129-229), produced in SF9 cells
On to B3, for which the “amount of integrin α5β1 bound to coated protein” value with integrin α5β1 [10] was “a similar amount of integrin interacted”. Moreover, in the test with HUVEC [11], the “adhesion of HUVEC to coated protein” value is “supported the adhesion of the HUVEC”.
